Experiments:
GCase [1] = target: T1, GCase (Homo sapiens, UniProt P04062); test: Concentration-dependent increase in GCase activity (EC50, Emax); assay type: cell-based; details: result in words
T1 sequence (P04062 40-536): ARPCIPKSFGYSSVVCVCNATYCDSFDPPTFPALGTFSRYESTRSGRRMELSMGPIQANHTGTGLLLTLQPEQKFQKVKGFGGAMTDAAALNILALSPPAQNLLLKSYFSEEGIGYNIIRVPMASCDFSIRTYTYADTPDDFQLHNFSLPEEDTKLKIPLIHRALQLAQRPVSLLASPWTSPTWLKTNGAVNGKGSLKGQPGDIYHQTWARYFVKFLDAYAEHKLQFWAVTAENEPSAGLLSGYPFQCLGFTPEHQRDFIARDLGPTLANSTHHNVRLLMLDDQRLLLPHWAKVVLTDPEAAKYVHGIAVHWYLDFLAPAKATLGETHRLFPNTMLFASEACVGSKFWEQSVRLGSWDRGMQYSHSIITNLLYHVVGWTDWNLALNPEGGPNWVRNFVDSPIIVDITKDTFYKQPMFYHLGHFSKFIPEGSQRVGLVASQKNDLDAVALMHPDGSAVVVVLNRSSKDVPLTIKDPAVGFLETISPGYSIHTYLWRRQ

GCase [2] = target: T2, GCase (Mus musculus, UniProt P17439); test: GCase enhancement in tissues of orally dosed mice; assay type: in vivo, mice (C57BL/6); details: for GCase increase: nine doses over 2 weeks, 24-hour washout
T2 construct: Liver, spleen, lung, and brain tissues were removed; from tissue; host or cells: brain, spleen, liver, lung of C57BL/6 mice
T2 sequence (P17439 20-515): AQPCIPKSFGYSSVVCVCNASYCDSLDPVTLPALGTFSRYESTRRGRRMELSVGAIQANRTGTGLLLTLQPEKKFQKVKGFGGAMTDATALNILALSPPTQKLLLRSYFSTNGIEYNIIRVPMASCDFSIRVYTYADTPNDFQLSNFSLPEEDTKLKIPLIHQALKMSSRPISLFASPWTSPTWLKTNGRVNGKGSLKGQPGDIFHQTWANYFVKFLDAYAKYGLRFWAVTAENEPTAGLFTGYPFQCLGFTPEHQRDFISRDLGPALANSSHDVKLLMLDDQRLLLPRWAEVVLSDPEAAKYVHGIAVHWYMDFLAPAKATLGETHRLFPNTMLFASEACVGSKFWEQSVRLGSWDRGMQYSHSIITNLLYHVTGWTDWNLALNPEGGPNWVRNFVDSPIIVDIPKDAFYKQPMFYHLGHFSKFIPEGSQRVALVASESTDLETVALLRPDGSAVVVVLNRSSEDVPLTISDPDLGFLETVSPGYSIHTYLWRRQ
Method: (§1) The ability of orally administered test compounds (the hydrochloride salt form of Compound A and Compound B) to elevate GCase levels as compared to reference compound, IFG-tartrate, was assessed in mice. […] Seven animals were used per dose. The dosing solutions were prepared in water. Compounds were administered over 2 weeks as follows: week 1, Mon-Fri (On), Sat-Sun (Off); week 2, Mon-Thu (On); necropsy on Friday. Thus, a total of 9 doses (dosing solutions prepared fresh every day) were given to each mouse, with a 24-hour washout between the last dose and necropsy.
(§2) Plasma was collected by spinning blood at 2700 g for 10 minutes at 4° C. Liver, spleen, lung, and brain tissues were removed, washed in cold PBS, blotted dry, flash frozen on dry ice, and stored at −80° C. until analysis. GCase levels were measured by homogenizing approximately 50 mg tissue in 500 μL McIlvane (MI) buffer (100 mM sodium citrate, 200 mM sodium phosphate dibasic, 0.25% sodium taurocholate, and 0.1% Triton X-100, pH 5.2) at pH 5.2 for 3-5 seconds on ice with a micro homogenizer. Homogenates were then incubated at room temperature without and with 2.5 mM conduritol-B-epoxide (CBE) for 30 min. Finally, 3.7 mM 4-methylumbeliferryl-β-glucoside (4-MUG) substrate was added and incubated at 37° C. for 60 min. Reactions were stopped by addition of 0.4 M glycine, pH 10.6. Fluorescence was measured on a plate reader for 1 sec/well using 355 nm excitation and 460 nm emission. Total protein was determined in lysates using the MicroBCA kit according to the manufacturer's instructions. A 4-methylumbelliferone (4-MU) standard curve ranging from 1.0 nM to 50 μM was run in parallel for conversion of raw fluorescence data to absolute GCase activity (in the presence and absence of CBE) and expressed as nanomoles of 4-MU released per milligram of protein per hour (nmol/mg protein/hr). GCase levels and protein levels were calculated using Microsoft Excel (Redmond, Wash.) and GraphPad Prism version 4.02.

[3] = Compound concentration in brain, spleen and plasma samples of GCase enhancement study; assay type: in vivo, mice (C57BL/6); details: nine doses
Method: as §1, §2

[4] = mice, nine p.o. doses over 2 weeks, result in words

For `O[C@@H]1[C@@H](CCl)CNC[C@H]1O` [Compound B, (3R,4R,5S)-5-(chloromethyl)piperidine-3,4-diol], the “effect on GCase activity” value (GCase [1]) was “concentration-dependent increase in GCase activity”, the “enhancement of enzyme activity compared to IFG-tartrate” value (GCase [1]) was “enhanced enzyme activity to the same maximum level at much lower concentration” and the GCase increase (GCase [2]; brain, 10 mg/kg (free base equivalent) p.o.) was 2.3 -fold. For the same molecule, the GCase increase (GCase [2]; brain, 100 mg/kg (free base equivalent) p.o.) was 3.5 -fold, the “GCase enhancement at lower doses compared to IFG-tartrate” value (GCase [2]; [4]) was “unexpectedly greater than that observed with IFG-tartrate even when far lower doses” and the “GCase enhancement in brain, spleen, liver and lung compared to control or IFG-tartrate” value (GCase [2]; [4]) was “statistically significant greater GCase enhancement in brain, spleen, liver and lung as compared to mice administered control or IFG-tartrate”. For the same molecule, the GCase increase (GCase [2]; spleen, 10 mg/kg (free base equivalent) p.o.) was 1.4 -fold, the GCase increase (GCase [2]; spleen, 100 mg/kg (free base equivalent) p.o.) was 2.2 -fold and the “Concentration in GCase assays after dilution (value in parenthesis)” value (shortened to “Concentration in GCase assays”) ([3]; brain sample, 10 mg/kg p.o.) was 0.9 nM. The “Concentration in GCase assays” value ([3]; brain sample, 100 mg/kg p.o.) was 7.6 nM, the “Concentration in GCase assays” value ([3]; spleen sample, 10 mg/kg p.o.) was 2.4 nM and the “Concentration in GCase assays” value ([3]; spleen sample, 100 mg/kg p.o.) was 8 nM.
